Measurements published in US9339509B2, “Methods of use to orally and topically treat acne and other skin conditions by administering a 19-nor containing vitamin D analog with or without a retinoid” (Wisconsin Alumni Research Foundation, priority 2006, dated 2016).
“Also recorded” adds a separate entry of the source.

Legend:
Rhino mouse [1] = experiment: Comedolytic effect of topical application to the Rhino mouse (comedone area); assay type: in vivo; settings: for response vs control in vivo at 0.069 µmol/kg: dose 69 nmol/kg; for response vs control in vivo at 0.217 µmol/kg: dose 217 nmol/kg; for comedone area (FIG. 7, FIG. 10): 69 nmole/kgBW/day; for comedone area relative to vehicle-treated group (FIG. 8, 9, 10): 217 nmole/kgBW/day; for comedone area relative to vehicle-treated group (FIG. 11): 72 h after final dose
Excerpt: (§1) Rhino mice were used to topically and orally test the compounds and compositions of the invention. The Rhino mouse is a well-established animal model used to study the comedolytic effects of anti-acne agents including retinoids. (See Boulcier M et al., Experimental Models in Skin Pharmacology, 1990, In Pharmacological Reviews 42:127-15). Mirshahpanah and Maibach, 2007, Cutaneous and Ocular Toxicology 26:195-202). The Rhino mouse model was used to study the therapeutic potential of 2-Methylene-19-nor-20(S)-1α-hydroxy-bishomopregnacalciferol (2MBisP), 19-Nor-26,27-dimethylene-20(S)-2-methylene-1α,25-dihydroxyvitamin D3 (CAGE-3), NEL, 24R-2MD2, Vit-III (17-20E), 2MPregna, 2MP, 20R-2MbisP, 2MTrisP, FF-44, FF-55, HPBS, VD-03 and atRA.
(§2) Animals and dose administration. Rhino mice 6-10 weeks old were dosed via the oral and/or topical route. In the majority of studies, the mice were dosed daily. In one topical study, the efficacy of daily versus intermittent (Monday/Wednesday/Friday) dosing was compared. The mice were weighed three times per week and doses were adjusted weekly based on body weight. The topical formulations were applied to the back of the animal in a maximum volume of 110 μL. The topical formulations were made by mixing the APIs with a topical carrier comprising 70 vol % propylene glycol and 30 vol % ethanol or 30 vol % propylene glycol and 70 vol % ethanol, as indicated. The topical vehicle control was the vehicle carrier solution matched to the formulation containing API and vehicle carrier.
(§3) The oral formulation was made by mixing the APIs with Wesson® soybean oil or NeoBee® oil. The oral dose was delivered to the back of the mouth of each mouse. Mice were sacrificed 4 hours after the final oral dose and 72 hours after the final topical dose. At sacrifice, the dorsal skin was collected for histological studies.
(§4) Comedolytic effect. The extent of the comedolytic effect (i.e., efficacy) was assessed by measuring the average area of the comedones, whereby the smaller the area, the larger the effect. The comedone area was determined by histological analysis of tissue sections based on a method developed in our lab (see FIG. 2). Skin was fixed overnight in 4% paraformaldehyde at 4 deg. C. with gentle agitation and dehydrated the next day into 100% methanol. Samples were embedded in paraffin and a total of nine 10 micron sections 150 microns apart were prepared from each Rhino mouse. Five of the nine sections were digitally imaged (6× magnification) for comedone analysis using Metamorph Imaging Software (trace function). The perimeter of each comedone on the images taken from the 5 sections was then traced using a Wacom Intuos 3 Graphics Tablet interfaced with the software. The number of pixels comprising the area of each individual comedone was obtained and transferred to an Excel spreadsheet, and the mean number of pixels per comedone was obtained for each Rhino mouse. For comedones that were completely healed (area=0) a pixel value approaching 0 (<10) was entered into the spreadsheet. The individual comedone area average for each mouse was then used to calculate the treatment group mean. Results in the figures are expressed in terms of mean±standard error of the mean.
Preparation of topical formulations containing 2MBisP, CAGE-3, 24R-2MD2, VitIII (17-20E), NEL, VD-03, 2MPregna, 2MP, 20R-2MBisP, 2MTrisP, FF-44, FF-55, and HPBS. Separate concentrated ethanolic stocks of 2MBisP, CAGE-3, 24R-2MD2, VitIII (17-20E) and NEL were diluted to a final concentration containing 70 vol % propylene glycol and 30 vol % ethanol or 30 vol % propylene glycol and 70 vol % ethanol as the excipient carrier system. The mixture was thoroughly mixed. The topical dosing formulation delivered the desired dosing amount of drug on a per kilogram body weight basis. A dose ranging from 100-110 μL in volume was administered to the back of the mouse. An average weight of 24 or 30 g/mouse was assumed in dose volume calculations. […]

Rhino mouse [2] = experiment: Comedolytic effect of oral administration to the Rhino mouse (comedone area); assay type: in vivo; settings: oral daily 24 days
Excerpt: as §1, §2, §3, §4
Preparation of oral dosing solutions containing 2MBisP, CAGE-3, 24R-2MD2, VitIII (17-20E) and NEL. Separate concentrated stocks of 2MBisP, CAGE-3, 24R-2MD2, VitIII (17-20E) and NEL were obtained in ethanol. The concentration was determined spectrophotometrically using a molar extinction coefficient=42,000 and a λmax=252.7. […] The final dose was delivered in ≦50 μL of oil.
Preparation of oral atRA dosing formulation. A concentrated stock solution containing atRA was prepared in dichloromethane. The atRA concentrated stock solution was diluted into ethanol. The concentration of atRA in that diluted stock solution was determined spectrophotometrically, whereby the molar extinction coefficient=45,200 and λmax=350. The purity of atRA was determined to be >99% by HPLC. […]

[3] = Mus musculus, 504 h, daily topical ca. 3 weeks, 70 vol % ethanol/30 vol % propylene glycol, mean ± SEM, read-out: Comedone Area (% Vehicle)
[4] = daily topical 3 weeks, 70 vol % ethanol/30 vol % propylene glycol
[5] = topical 217 nmole/kgBW daily (total of 22 doses), 70 vol % ethanol/30 vol % propylene glycol
[6] = topical 217 nmole/kgBW intermittently Monday, Wednesday, Friday (total of 10 doses), 70 vol % ethanol/30 vol % propylene glycol

C=C1/C(=C\C=C2/CCC[C@]3(C)[C@@H]([C@H](C)CCCC(C)(C)O)CC[C@@H]23)C[C@@H](O)C[C@@H]1O [1,25(OH)2D3, 1,25-DIHYDROXYVITAMIN D3, reference compound]
response vs control in vivo at 0.006 µmol/kg (Rhino mouse [1]; Mus musculus, 504 h, daily topical ca. 3 weeks, 70 vol % ethanol/30 vol % propylene glycol, dose 6.0 nmol/kg, mean ± SEM, read-out: Comedone Area (% Vehicle)): 187 ± 30%

C=C1[C@H](O)CC(=C/C=C2\CCC[C@]3(C)[C@@H]([C@@H](C)CCCC4(O)CCCC4)CC[C@@H]23)C[C@H]1O [CAGE-3, 19-nor-26,27-dimethylene-20(S)-2-methylene-1α,25-dihydroxyvitamin D3]
comedone area (FIG. 12) (Rhino mouse [2]; 68 pmole/kgBW/day): reduction in the comedone area | comedone area vs vehicle control (FIG. 3, FIG. 4) (Rhino mouse [1]; topical 3 weeks, 30 vol % ethanol/70 vol % propylene glycol, 0.9 ng/day (ca. 100 pmole/kgBW/day), reduced to 0.45 ng/day on day 10 and 0.22 ng/day on day 19): reduction in the comedone area; also recorded: reduced comedone area

C=C1[C@H](O)CC(=C/C=C2\CCC[C@@]3(C)C2CCC3[C@@H](C)CC(F)F)C[C@H]1O (stereo partly drawn) [FF-55, 2-methylene-(20S)-23,23-difluoro-1α-hydroxy-19-nor-bishomopregnancalciferol]
response vs control in vivo at 0.069 µmol/kg (Rhino mouse [1]; [3]): 108 ± 35% | response vs control in vivo at 0.217 µmol/kg (Rhino mouse [1]; [3]): 53 ± 8% | comedone area (FIG. 7, FIG. 10) (Rhino mouse [1]; [4]): insignificant effect | comedone area relative to vehicle-treated group (FIG. 8, 9, 10) (Rhino mouse [1]; [4]): significant reduction in comedone area | comedone area relative to vehicle-treated group (FIG. 11) (Rhino mouse [1]; [5]): significant reduction in comedone area | comedone area relative to vehicle-treated group (FIG. 11) (Rhino mouse [1]; [6]): significant reduction in comedone area

C=C1[C@H](O)CC(=C/C=C2\CCCC3(C)C2CCC3C(C)C)C[C@H]1O (stereo partly drawn) [2MP, 1α-hydroxy-2-methylene-19-nor-homopregnacalciferol]
response vs control in vivo at 0.217 µmol/kg (Rhino mouse [1]; [3]): 92 ± 20% | comedone area relative to vehicle-treated group (FIG. 8, 9, 10) (Rhino mouse [1]; [4]): smaller reduction in comedone area

C=C1[C@H](O)CC(=C/C=C2\CCCC3(C)C(CC)CCC23)C[C@H]1O (stereo partly drawn) [2MPregna, 2-methylene-19-nor-1α-hydroxy-pregnacalciferol]
response vs control in vivo at 0.217 µmol/kg (Rhino mouse [1]; [3]): 63 ± 14% | comedone area relative to vehicle-treated group (FIG. 8, 9, 10) (Rhino mouse [1]; [4]): significant reduction in comedone area

C=C1[C@H](O)CC(=C/C=C2\CCC[C@]3(C)C([C@H](C)CCC[C@H](C)O)CC[C@@H]23)C[C@H]1O (stereo partly drawn) [NEL, 2-methylene-(20R,25S)-19,26-dinor-1α,25-dihydroxyvitamin D3]
comedone area (FIG. 14) (Rhino mouse [2]; 7.5 nmole/kgBW/day): no significant reduction in comedone area | comedone area (FIG. 14) (Rhino mouse [2]; 25 nmole/kgBW/day): no significant reduction in comedone area | response vs control in vivo at 0.0075 µmol/kg (Rhino mouse [1]; Mus musculus, 504 h, daily topical ca. 3 weeks, 70 vol % ethanol/30 vol % propylene glycol, dose 7.5 nmol/kg, mean ± SEM, read-out: Comedone Area (% Vehicle)): 156 ± 34% | response vs control in vivo at 0.025 µmol/kg (Rhino mouse [1]; Mus musculus, 504 h, daily topical ca. 3 weeks, 70 vol % ethanol/30 vol % propylene glycol, dose 25 nmol/kg, mean ± SEM, read-out: Comedone Area (% Vehicle)): 145 ± 24%

C=C1[C@H](O)CC(=C/C=C2\CCC[C@]3(C)/C(=C(\C)CCCC(C)(C)O)CC[C@@H]23)C[C@H]1O [VitIII (17-20E), 2-methylene-1α,25-dihydroxy-(17E)-17(20)-dehydro-19-nor-vitamin D3]
comedone area (FIG. 13) (Rhino mouse [2]; 24 nmole/kgBW/day): no significant reduction in comedone area | response vs control in vivo at 0.024 µmol/kg (Rhino mouse [1]; Mus musculus, 504 h, daily topical ca. 3 weeks, 70 vol % ethanol/30 vol % propylene glycol, dose 24 nmol/kg, mean ± SEM, read-out: Comedone Area (% Vehicle)): 116 ± 15%

C=C1[C@H](O)CC(=C/C=C2\CCC[C@@H]3C([C@@H](C)CCCC(C)(C)O)CC[C@@H]23)C[C@H]1O (stereo partly drawn) [VD-03, 2-methylene-18,19-dinor-(20S)-1α,25-dihydroxyvitamin D3]
response vs control in vivo at 0.00062 µmol/kg (Rhino mouse [1]; Mus musculus, 504 h, daily topical ca. 3 weeks, 70 vol % ethanol/30 vol % propylene glycol, dose 0.62 nmol/kg, mean ± SEM, read-out: Comedone Area (% Vehicle)): 90 ± 14%

2-(3′hydroxypropyl-1′,2′-idene)-19,23,24-trinor-(20S)-1α-hydroxyvitamin D3 [HPBS]
Comedone Area (% Vehicle) (Rhino mouse [1]; daily topical ca. 3 weeks, 70 vol % ethanol/30 vol % propylene glycol, dose 217 to 122 nmol/kg (changed on day 3 or day 10), mean ± SEM): 74 ± 10 % Vehicle

C=C1[C@H](O)CC(=C/C=C2\CCC[C@]3(C)C([C@H](C)/C=C/[C@@H](C)C(C)(C)O)CC[C@@H]23)C[C@H]1O (stereo partly drawn) [24R-2MD2, 2-methylene-19-nor-(24R)-1α,25-dihydroxyvitamin D2]
comedone area (FIG. 13) (Rhino mouse [2]; 2.3 nmole/kgBW/day): no significant reduction in comedone area | response vs control in vivo at 0.0023 µmol/kg (Rhino mouse [1]; Mus musculus, 504 h, daily topical ca. 3 weeks, 70 vol % ethanol/30 vol % propylene glycol, dose 2.3 nmol/kg, mean ± SEM, read-out: Comedone Area (% Vehicle)): 176 ± 55%

C=C1[C@H](O)CC(=C/C=C2\CCC[C@@]3(C)C2CCC3[C@@H](C)CCC)C[C@H]1O (stereo partly drawn) [2MTrisP, 2-methylene-(20S)-19-nor-1α-hydroxy-trishomopregnacalciferol]
response vs control in vivo at 0.217 µmol/kg (Rhino mouse [1]; [3]): 66 ± 9% | comedone area relative to vehicle-treated group (FIG. 8, 9, 10) (Rhino mouse [1]; [4]): significant reduction in comedone area

C=C1[C@H](O)CC(=C/C=C2\CCC[C@@]3(C)C2CCC3[C@H](C)CC)C[C@H]1O (stereo partly drawn) [20R-2MBisP, (20R)-1α-hydroxy-2-methylene-19-nor-bishomopregnacalciferol]
response vs control in vivo at 0.217 µmol/kg (Rhino mouse [1]; [3]): 136 ± 17% | response vs control in vivo at 0.694 µmol/kg (Rhino mouse [1]; Mus musculus, 504 h, daily topical ca. 3 weeks, 70 vol % ethanol/30 vol % propylene glycol, dose 694 nmol/kg, mean ± SEM, read-out: Comedone Area (% Vehicle)): 45 ± 6% | response vs control in vivo at 2.187 µmol/kg (Rhino mouse [1]; Mus musculus, 504 h, daily topical ca. 3 weeks, 70 vol % ethanol/30 vol % propylene glycol, dose 2187 nmol/kg, mean ± SEM, read-out: Comedone Area (% Vehicle)): 17 ± 3% | comedone area relative to vehicle-treated group (FIG. 8, 9, 10) (Rhino mouse [1]; [4]): insignificant effect | comedone area relative to vehicle-treated group (FIG. 8) (Rhino mouse [1]; daily topical 3 weeks, 70 vol % ethanol/30 vol % propylene glycol, 694 nmole/kgBW/day): significant reduction

C=C1[C@H](O)CC(=C/C=C2\CCC[C@@]3(C)C2CCC3[C@H](C)CC(F)F)C[C@H]1O (stereo partly drawn) [FF-44, 2-methylene-(20R)-23,23-difluoro-1α-hydroxy-19-nor-bishomopregnacalciferol]
response vs control in vivo at 0.069 µmol/kg (Rhino mouse [1]; [3]): 104 ± 20% | response vs control in vivo at 0.217 µmol/kg (Rhino mouse [1]; [3]): 47 ± 12% | comedone area (FIG. 7, FIG. 10) (Rhino mouse [1]; [4]): insignificant effect | comedone area relative to vehicle-treated group (FIG. 8, 9, 10) (Rhino mouse [1]; [4]): significant reduction in comedone area | comedone area relative to vehicle-treated group (FIG. 11) (Rhino mouse [1]; [5]): significant reduction in comedone area | comedone area relative to vehicle-treated group (FIG. 11) (Rhino mouse [1]; [6]): significant reduction in comedone area
